pEC50: −log10 of the molar value. Calls of active or inactive are those of the source.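 Rule for the calls: active = a fitted half-maximal concentration EC50 for the rise in nuclear signal no higher than ten times the top dose tested; inconclusive = flat fit with activity between 30% and 70%, or unusable fit; inactive = EC50 beyond ten times the top dose.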
biological target: Hypoxia-inducible factor 1-alpha (Homo sapiens) (UniProt Q16665); assay: activators of HIF1alpha nuclear accumulation, confirmation, imaging, fluorescence, U2OS GFP-HIF1alpha (AID 434951); details: U2OS GFP-HIF1alpha nuclear intensity, high-content imaging
Sequence (Q16665 whole entry, looked up): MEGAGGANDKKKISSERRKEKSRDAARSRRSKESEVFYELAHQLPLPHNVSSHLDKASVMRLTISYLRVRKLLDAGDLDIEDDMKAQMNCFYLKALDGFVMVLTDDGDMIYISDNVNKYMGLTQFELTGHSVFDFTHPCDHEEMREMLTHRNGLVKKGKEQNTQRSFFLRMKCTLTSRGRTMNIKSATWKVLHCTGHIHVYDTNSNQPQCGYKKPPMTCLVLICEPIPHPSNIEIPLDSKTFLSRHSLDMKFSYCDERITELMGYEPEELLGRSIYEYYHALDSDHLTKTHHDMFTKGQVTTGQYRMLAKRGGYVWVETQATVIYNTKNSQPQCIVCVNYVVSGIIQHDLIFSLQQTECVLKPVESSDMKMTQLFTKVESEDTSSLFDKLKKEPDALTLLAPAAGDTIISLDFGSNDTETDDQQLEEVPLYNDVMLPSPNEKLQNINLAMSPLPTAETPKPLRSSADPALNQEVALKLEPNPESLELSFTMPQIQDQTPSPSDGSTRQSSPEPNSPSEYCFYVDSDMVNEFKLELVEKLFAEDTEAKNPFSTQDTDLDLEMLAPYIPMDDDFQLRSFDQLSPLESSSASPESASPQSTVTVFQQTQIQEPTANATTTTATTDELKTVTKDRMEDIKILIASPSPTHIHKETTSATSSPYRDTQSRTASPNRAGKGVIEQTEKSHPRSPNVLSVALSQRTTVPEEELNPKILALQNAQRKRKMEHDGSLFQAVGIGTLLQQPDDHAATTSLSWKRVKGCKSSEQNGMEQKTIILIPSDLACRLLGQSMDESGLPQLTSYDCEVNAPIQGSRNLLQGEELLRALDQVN

For `COC(=O)C1=C(C)N(C)C(=O)NC1c1cc(Cl)c(O)c(OC)c1` (centres undefined), which EC50 is on record?
Its EC50 is > 35 µM (inactive).

With `CC(Oc1ccc2c3c(c(=O)oc2c1)CCCC3)C(=O)NCC(O)c1ccccc1` (centres undefined) as the compound, how does the EC50 read?
Its EC50 is > 35 µM (inactive).

How did the EC50 turn out when `Cc1ccc(CN2[C@@H](CC(C)C)COCCS2(=O)=O)cc1` was run?
The EC50 was > 35 µM (inactive).

How did the EC50 turn out when `Cc1ccc2nc(N3CCN(C)CC3)[nH]c2c1` was run?
Its EC50 is > 35 µM (inactive).

With `O=C(NC(CSCc1ccccc1)C(=O)N/N=C/c1ccc(O)cc1O)c1ccc([N+](=O)[O-])cc1` (centres undefined) as the compound, how does the pEC50 read?
Its pEC50 is 5.60.

For `Cc1ccc(-c2cc(C(F)(F)F)n3nc(C(=O)Nc4c(C)n(C)n(-c5ccccc5)c4=O)cc3n2)cc1`, which EC50 is on record?
The EC50 was > 35 µM (inactive).

`O=C(CSc1ncn[nH]1)NCCc1ccc(Cl)cc1Cl` was tested. Which EC50 did it give?
Its EC50 is > 35 µM (inactive).

For `COCCn1c(-c2ccc(OC)cc2)cnc1SCC(=O)Nc1ccc(OC)cc1OC`, which EC50 is on record?
Its EC50 is > 35 µM (inactive).

`CCCC(=O)NC(c1ccc(C)cc1)c1ccc2cccnc2c1O` (centres undefined) was tested. Which pEC50 did it give?
The pEC50 was 5.14.

`CCNc1nc(Cl)nc(NNC(=O)C(C)Oc2ccccc2)n1` (centres undefined) was tested. Which EC50 did it give?
Its EC50 is > 35 µM (inactive).

`Oc1[nH]c2ccccc2c1N=NC(=S)N1CCOCC1` was tested. Which pEC50 did it give?
Its pEC50 is 5.10.

With `COc1ccc(CSCC(=O)Nc2ccc(S(=O)(=O)N3CCCCCC3)cc2)cc1` as the compound, how does the EC50 read?
The EC50 was > 35 µM (inactive).

For `Cc1sc2ncnc(Sc3nnnn3-c3ccc(Cl)cc3)c2c1C`, which EC50 is on record?
Its EC50 is > 35 µM (inactive).

Which EC50 does the source give for `Cc1ccc(C(=O)NC2CC3CCCC(C2)N3Cc2ccccc2)cc1` (centres undefined) here?
Its EC50 is > 35 µM (inactive).

With `O=C(CSc1nc2ccccc2c(=O)n1-c1ccccc1)NC(=O)CN1CCCC1=O` as the compound, how does the EC50 read?
Its EC50 is > 35 µM (inactive).

With `Cc1cc(SCC(=O)N/N=C/c2ccc(O)c(O)c2O)c(C)cc1Br` as the compound, how does the EC50 read?
Its EC50 is > 35 µM (inactive).

For `COc1ccc(Nc2nc(N/N=C/c3ccc(N(C)C)cc3)nc(C)c2[N+](=O)[O-])cc1`, which EC50 is on record?
The EC50 was > 35 µM (inactive).

Which EC50 does the source give for `Cc1c(Cl)c([N+](=O)[O-])nn1CC(=O)NC12CC3CC(CC(C3)C1)C2` here?
Its EC50 is > 35 µM (inactive).

`CCOC(=O)C1=C(c2ccccc2)NC(=O)NC1c1ccc(O)c(Cl)c1` (centres undefined) was tested. Which pEC50 did it give?
Its pEC50 is 4.90.
